PMC10111423, “Antimalarial Imidazopyridines Incorporating an Intramolecular Hydrogen Bonding Motif: Medicinal Chemistry and Mechanistic Studies” (ACS Infectious Diseases, 2023)
“Also recorded” adds a separate entry of the source.

Test system: P. falciparum parasites
Experiment: Cellular heme fractionation (heme speciation) assay
Format: cell-based, Plasmodium falciparum
Description: At this juncture, it is noteworthy that a true hemozoin inhibitor causes a dose-dependent increase in “free” heme and a corresponding decrease in hemozoin. page 23: Table S2: Concentrations of fluorescent dyes used for confocal imaging of P. falciparum with respective excitation lasers and emission filter settings. Dye Concentration Excitation Laser Emission filter DRAQ 5 500 nM 580 nm 600-630 nm LysoTracker 100 nM 561 nm 575-630 nm Nile Red 100 nM 561 nm 575-630 nm ER-Tracker 100 nM 561 nm 575-630 nm MitoTracker 100 nM 561 nm 650-710 nm 1.3-NBD 50 nM 420 nm 500-550 nm 3.14-NBD 75 nM 420 nm 500-550 nm Heme Fractionation Assay […] The heme fractionation assay was performed according to the methods previously described.9 After the IC50 of the target compounds was determined, a counting plate was prepared by adding 10 μL of the isolated washed trophozoites to the corresponding wells of a flat-bottomed 96-well plate. […] The hemocytometer determined cell counts for these six samples were statistically compared to the cell counts determined by flow cytometry to test for agreement. 10 μL of cells from the counting plate were loaded onto a bright-lined hemocytometer, and five large squares were counted after 10 minutes of settling. The concentration of cells in each well of the plate was determined using equation 1: CH 1⁄4 […] […] Typically, 10,000 events were counted for each sample. […]

Which “Levels of hemozoin (Hz) Fe” value (between 0.5–2× IC50) does the source give for `CCN(CCNc1cc2[nH]c(-c3cccc(C(F)(F)F)c3)nc2cn1)Cc1ccc(Cl)cc1O` [Compound 14, 5-Chloro-2-((ethyl(2-((2-(3-(trifluoromethyl)phenyl)-1H-imidazo[4,5-c]pyridin-6-yl)amino)ethyl)amino)methyl)phenol] here?
The value was “significant decrease; also recorded: decreased”.

And the “Levels of "free" heme Fe” value (increasing concentrations of compound)?
The value was “no statistically significant change; also recorded: no statistically significant effect”.
